Molecular target: T1, SIRT1 (Homo sapiens, UniProt Q96EB6)
T1 sequence (Q96EB6 1-747): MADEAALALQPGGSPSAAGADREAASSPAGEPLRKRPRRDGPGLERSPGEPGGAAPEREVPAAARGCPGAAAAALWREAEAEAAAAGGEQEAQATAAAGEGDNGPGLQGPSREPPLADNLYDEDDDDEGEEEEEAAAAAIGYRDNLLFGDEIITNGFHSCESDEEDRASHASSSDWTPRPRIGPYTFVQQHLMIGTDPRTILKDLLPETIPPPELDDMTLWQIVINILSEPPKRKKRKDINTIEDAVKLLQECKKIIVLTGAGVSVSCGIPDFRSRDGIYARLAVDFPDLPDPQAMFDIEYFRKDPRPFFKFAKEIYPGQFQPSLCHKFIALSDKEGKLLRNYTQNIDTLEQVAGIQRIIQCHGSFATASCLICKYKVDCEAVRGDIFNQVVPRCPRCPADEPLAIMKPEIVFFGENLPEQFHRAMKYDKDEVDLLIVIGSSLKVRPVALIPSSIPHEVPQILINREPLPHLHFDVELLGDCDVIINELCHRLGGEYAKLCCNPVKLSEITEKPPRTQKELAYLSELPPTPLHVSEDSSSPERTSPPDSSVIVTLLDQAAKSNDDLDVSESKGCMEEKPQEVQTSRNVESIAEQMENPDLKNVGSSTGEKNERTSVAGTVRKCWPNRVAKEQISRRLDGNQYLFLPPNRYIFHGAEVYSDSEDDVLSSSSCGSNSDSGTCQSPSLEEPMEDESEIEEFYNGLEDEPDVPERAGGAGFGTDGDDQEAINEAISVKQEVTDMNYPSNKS
Test: SIRT1 mass spectrometry (MS) based deacetylation assay; for FOLD ACT. MS: test concentration or dose not given here
Assay type: biochemical
Conditions: Sirt1 activators; for FOLD ACT. MS: fold activation as determined by MS; for EC50: mass spectrometry assay, read-out: ED50 MS ASSAY

Structure (SMILES)	FOLD ACT. MS	EC50
COc1cc(C(=O)Nc2ccccc2-c2nc3cccnc3[nH]2)cc(OC)c1OC [Compound 522]	A (A (Fold activation >250%))	5 to 50 µM
COc1cc(C)ccc1C(=O)Nc1ccccc1-c1nc2cccnc2[nH]1 [Compound 523]	B (B (Fold Activation <250%))	5 to 50 µM
CN(C)c1cccc(C(=O)Nc2ccccc2-c2nc3cccnc3[nH]2)c1 [Compound 524]	B (B (Fold Activation <250%))	< 5 µM
COc1ccc(C(=O)Nc2ccccc2-c2nc3cccnc3[nH]2)cc1OC [Compound 525]	B (B (Fold Activation <250%))	< 5 µM
O=C(Nc1ccccc1-c1nc2cccnc2[nH]1)c1ccc(N2CCOCC2)cc1 [Compound 526]	A (A (Fold activation >250%))	< 5 µM
O=C(Nc1ccccc1-c1nc2cccnc2[nH]1)c1ccc(N2CCCCC2)cc1 [Compound 527]	B (B (Fold Activation <250%))	< 5 µM
COc1ccc(C(=O)Nc2ccccc2-c2nc3cccnc3[nH]2)cc1C(F)(F)F [Compound 528]	B (B (Fold Activation <250%))	< 5 µM
O=C(Nc1ccccc1-c1nc2cccnc2[nH]1)c1cccc(OC(F)(F)F)c1 [Compound 529]	B (B (Fold Activation <250%))	< 5 µM
COc1cccc(C(=O)Nc2ccccc2-c2nc3cccnc3[nH]2)c1C [Compound 530]	B (B (Fold Activation <250%))	< 5 µM
COc1ccc(C(=O)Nc2ccccc2-c2nc3cccnc3[nH]2)cc1 [Compound 531]	B (B (Fold Activation <250%))	< 5 µM
COc1cccc(C(=O)Nc2ccccc2-c2nc3cccnc3[nH]2)c1 [Compound 532]	B (B (Fold Activation <250%))	< 5 µM
O=C(Nc1ccccc1-c1nc2cccnc2[nH]1)c1ccccc1 [Compound 533]	B (B (Fold Activation <250%))	< 5 µM
CN(C)c1ccc(C(=O)Nc2ccccc2-c2nc3cccnc3[nH]2)cc1 [Compound 534]	B (B (Fold Activation <250%))	< 5 µM
COc1cc(C(=O)Nc2ccccc2-c2nc3cccnc3[nH]2)ccc1CN1CCCC1 [Compound 535]	A (A (Fold activation >250%))	5 to 50 µM
COc1cc(C(=O)Nc2ccccc2-c2nc3cccnc3[nH]2)ccc1CN1CCCCC1 [Compound 536]	A (A (Fold activation >250%))	5 to 50 µM
COc1cc(C(=O)Nc2ccccc2-c2nc3cccnc3[nH]2)ccc1CN1CCOCC1 [Compound 537]	A (A (Fold activation >250%))	< 5 µM
COc1cc(C(=O)Nc2ccccc2-c2nc3cccnc3[nH]2)ccc1CN1CCNCC1 [Compound 538]	A (A (Fold activation >250%))	5 to 50 µM
COc1cc(C(=O)Nc2ccccc2-c2nc3cccnc3[nH]2)ccc1CN1CCN(C)CC1 [Compound 539]	A (A (Fold activation >250%))	< 5 µM
COc1cc(C(=O)Nc2ccccc2-c2nc3cccnc3[nH]2)ccc1CN(C)C [Compound 540]	A (A (Fold activation >250%))	5 to 50 µM
COc1cc(C(=O)Nc2ccccc2-c2cn3ccccc3n2)ccc1CN1CCOCC1 [Compound 541]	B (B (Fold Activation <250%))	5 to 50 µM
COc1cc(C(=O)Nc2ccccc2-c2cn3cccnc3n2)ccc1CN1CCOCC1 [Compound 542]	A (A (Fold activation >250%))	5 to 50 µM
O=C(Nc1ccccc1-c1cn2c(CN3CCNCC3)csc2n1)c1cnccn1 [Compound 543]	A (A (Fold activation >250%))	< 5 µM
O=C(Nc1ccccc1-c1cn2c(CN3CCNCC3)csc2n1)c1cc2ccccc2s1 [Compound 544]	A (A (Fold activation >250%))	5 to 50 µM
COc1ccc(C(=O)Nc2ccccc2-c2cn3c(n2)CCCC3)cc1OC [Compound 545]	B (B (Fold Activation <250%))	5 to 50 µM

From patent US8044198B2, “Sirtuin modulating compounds” (Sirtris Pharmaceuticals, Inc., priority 2005, dated 2011)
